Laboratory results taken from publication PMC10117764, “The roles of serine hydrolases and serum albumin in alisol B 23-acetate hydrolysis in humans” (Frontiers in Pharmacology, 2023).

Experiments:
hCES1A [1] = target: T1, hCES1A (Homo sapiens, UniProt P23141); test: Reaction phenotyping assay of AB23A hydrolysis, hCES1A; assay type: in vitro ADME; details: hCES1A 5 μg/mL, AB23A 20 μM, 60 min, pH 7.4 at 37°C
T1 construct: 10xHis; made in house; host or cells: HEK293-F cells, pTT5 vector, purified from conditioned medium
T1 sequence (P23141 18-563): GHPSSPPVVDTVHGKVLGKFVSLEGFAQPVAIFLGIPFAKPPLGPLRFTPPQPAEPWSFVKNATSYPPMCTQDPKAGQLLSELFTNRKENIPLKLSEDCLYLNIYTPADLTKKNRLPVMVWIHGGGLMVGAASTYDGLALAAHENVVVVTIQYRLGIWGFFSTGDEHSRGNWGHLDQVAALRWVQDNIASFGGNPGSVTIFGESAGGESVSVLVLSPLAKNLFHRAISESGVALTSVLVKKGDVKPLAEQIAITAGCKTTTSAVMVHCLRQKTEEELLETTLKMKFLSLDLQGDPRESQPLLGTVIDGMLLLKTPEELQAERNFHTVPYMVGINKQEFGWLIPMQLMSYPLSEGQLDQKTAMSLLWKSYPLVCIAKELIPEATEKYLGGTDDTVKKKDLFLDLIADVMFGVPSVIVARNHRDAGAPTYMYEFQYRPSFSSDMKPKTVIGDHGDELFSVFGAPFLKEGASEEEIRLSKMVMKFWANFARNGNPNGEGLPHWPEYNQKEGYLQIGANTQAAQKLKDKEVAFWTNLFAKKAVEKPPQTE
Experimental: (§1) The hydrolytic rates of AB23A in different human recombinant enzymes (hCES1A, hCES2A, hPL, hIAH1, hNotum, hAchE, hBchE, hSA, hCTSA, hMAGL) were assayed. The incubation system included PBS, each tested enzyme (5 μg/mL, final concentration), and AB23A (20 μM). After incubation for 1 h at 37°C, ice-cold acetonitrile was added to terminate the reaction and precipitate proteins. The supernatants by centrifuging were used to quantify the formation rates of AB by LC-UV analysis. The detection wavelength of AB was 196 nm.

[2] = Hydrolytic half-life of AB23A in rat liver microsomes; assay type: in vitro ADME; details: rat liver microsomes (RLMs), pH 7.4, RLMs 0.10 mg/mL, read-out: T1/2 (hydrolytic half-life)
Experimental: The hydrolytic half-lives (t1/2) of AB23A in human plasma and different human tissue preparations were carried out according to the procedure of in vitro metabolic stability studies ([Ge et al., 2013]). The incubation mixture (1,000 μL) consisted of PBS (pH 7.4), enzyme sources (HLMs/HIMs/human plasma) and AB23A. 25% diluted human plasma was used, the protein concentrations of other tissue microsomes were 0.1 mg/mL. The 100 μL incubation mixture was moved to another containing ice-cold acetonitrile tube at different time points (0, 5, 15, 30, 45, 60, 90, 120 min). All samples were centrifuged for 30 min at 20,000 g 4°C and took the supernatants for LC-UV analysis.
The incubation conditions were as follows: the classic incubation system included 100 mM potassium phosphate buffer (PBS, pH 7.4), enzyme sources, and AB23A. In all incubations, PBS and enzyme sources were pre-incubation at 37 °C for 3 min and the reaction was started by adding AB23A (the organic solvent content at most 1%). After reacting 1 h, ice-cold acetonitrile was added to terminate the reaction and precipitate proteins. The samples were centrifuged for 30 min at 20000 × g, 4 °C, and the supernatants were taken for further LC-UV analysis.

hSA = target: T2, hSA (Homo sapiens, UniProt P02768); test: Reaction phenotyping assay of AB23A hydrolysis, hSA; assay type: in vitro ADME; details: hSA 500 μg/mL (Figure 3), AB23A 20 μM, 60 min, pH 7.4 at 37°C
T2 construct: purchased Sigma-Aldrich Lot#SLCC9268
T2 sequence (P02768 25-609): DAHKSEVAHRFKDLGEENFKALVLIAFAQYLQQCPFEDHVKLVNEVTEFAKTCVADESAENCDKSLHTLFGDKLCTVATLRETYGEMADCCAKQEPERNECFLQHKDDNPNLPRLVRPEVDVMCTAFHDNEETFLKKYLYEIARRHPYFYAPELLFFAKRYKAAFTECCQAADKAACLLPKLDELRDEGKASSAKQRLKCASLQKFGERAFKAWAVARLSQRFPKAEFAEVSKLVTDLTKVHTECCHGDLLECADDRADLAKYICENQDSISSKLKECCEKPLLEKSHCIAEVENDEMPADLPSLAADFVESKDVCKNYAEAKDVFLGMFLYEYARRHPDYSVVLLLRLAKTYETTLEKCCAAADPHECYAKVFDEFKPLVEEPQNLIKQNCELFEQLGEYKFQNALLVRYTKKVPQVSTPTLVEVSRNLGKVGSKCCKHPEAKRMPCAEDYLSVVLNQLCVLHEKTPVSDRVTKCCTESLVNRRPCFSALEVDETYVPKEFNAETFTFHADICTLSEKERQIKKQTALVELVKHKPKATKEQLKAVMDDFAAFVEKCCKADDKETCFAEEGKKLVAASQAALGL
Experimental: The hydrolytic rates of AB23A in different human recombinant enzymes (hCES1A, hCES2A, hPL, hIAH1, hNotum, hAchE, hBchE, hSA, hCTSA, hMAGL) were assayed. […] After incubation for 1 h at 37°C, ice-cold acetonitrile was added to terminate the reaction and precipitate proteins. The supernatants by centrifuging were used to quantify the formation rates of AB by LC-UV analysis. The detection wavelength of AB was 196 nm.

[3] = design: method as in Liu et al. (2022); details: oral administration of Qingfei Paidu Decoction, ref Liu et al. (2022); cited from earlier work
hCES1A [4] = target: T1, hCES1A; test: Kinetic analysis of AB23A hydrolysis in hCES1A; assay type: in vitro ADME; details: 1 h incubation
Experimental: The enzymatic kinetics of AB23A hydrolysis in different tissue preparations (HLMs, HIMs, human plasma) and human recombinant enzymes (hCES1A, hCES2A, hSA, hBchE) were analyzed. The incubation system (200 μL) consisted of PBS, each tested enzyme, and AB23A (ranging from 0 to 1,000 μM). After incubating for 1 h, the supernatants were then used for LC-UV analysis. The kinetic parameters of AB23A hydrolysis were fitted by the following Michaelis−Menten Eq. 1 ([Zhang et al., 2022]). V=(Vmax×[S])⁄(Km+[S]) (1) Here, K m is the Michaelis constant of AB23A hydrolysis, V max is the maximum velocity of AB23A hydrolysis, V max /K m is used to calculate the intrinsic clearance (CL int ).

[5] = Hydrolytic half-life of AB23A in pig liver microsomes; assay type: in vitro ADME; details: pig liver microsomes (PLMs), pH 7.4, PLMs 0.10 mg/mL, read-out: T1/2 (hydrolytic half-life)
hCES2A = target: T3, hCES2A (Homo sapiens, UniProt O00748); test: Reaction phenotyping assay of AB23A hydrolysis, hCES2A; assay type: in vitro ADME; details: hCES2A 5 μg/mL, AB23A 20 μM, 60 min, pH 7.4 at 37°C
T3 construct: 10xHis; made in house; host or cells: HEK293-F cells, pTT5 vector, purified from conditioned medium
T3 sequence (O00748 27-559): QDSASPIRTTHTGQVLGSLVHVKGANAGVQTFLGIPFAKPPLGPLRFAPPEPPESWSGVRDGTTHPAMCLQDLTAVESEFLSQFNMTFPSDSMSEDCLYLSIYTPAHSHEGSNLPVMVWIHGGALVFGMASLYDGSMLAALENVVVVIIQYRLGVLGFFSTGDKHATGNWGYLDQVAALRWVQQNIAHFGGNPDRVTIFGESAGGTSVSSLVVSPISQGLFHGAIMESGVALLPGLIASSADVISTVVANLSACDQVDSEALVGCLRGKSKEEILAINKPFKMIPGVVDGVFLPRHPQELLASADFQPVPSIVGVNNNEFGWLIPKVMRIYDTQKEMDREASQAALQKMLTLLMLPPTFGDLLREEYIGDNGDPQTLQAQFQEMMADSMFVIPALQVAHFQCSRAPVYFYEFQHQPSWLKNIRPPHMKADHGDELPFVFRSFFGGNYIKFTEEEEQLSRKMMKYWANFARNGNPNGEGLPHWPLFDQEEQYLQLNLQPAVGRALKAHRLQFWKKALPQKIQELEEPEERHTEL
Experimental: as §1

CC(=O)O[C@H](C[C@@H](C)C1=C2C[C@H](O)C3[C@@]4(C)CCC(=O)C(C)(C)C4CC[C@]3(C)[C@@]2(C)CC1)[C@H]1OC1(C)C (stereo partly shown) [AB23A, Alisol B 23-acetate]
Hydrolytic rate (formation of AB) in reaction phenotyping (hCES1A [1]): also catalyzed this hydrolytic reaction
half-life [2]: 55.63 ± 0.11 min
Hydrolytic rate (formation of AB) in reaction phenotyping (hSA): also catalyzed this hydrolytic reaction
Detection in mice plasma and liver [3]: hardly detected
K m of AB23A hydrolysis (hCES1A [4]): 190.80 ± 31.41 µM
half-life [5]: 9.5 ± 0.05 min
Hydrolytic rate (formation of AB) in reaction phenotyping (hCES2A): also catalyzed this hydrolytic reaction
